From patent US11905244B2, “Chemical modulators of store-operated calcium channels and their therapeutic applications” (The Texas A&M University System, priority 2017, dated 2024)

What follows are compounds tested against CRAC channel (Homo sapiens (Human), UniProt Q96D31) (assay: GFP-NFAT translocation-based high-content screening (TG-stimulated HeLa cells stably expressing GFP-NFAT)). Settings: 200 μM compound.
Type: cell-based
Source text: It is known that thapsigargin (TG) can induce the CRAC channel to open resulting in the calcium influx. The elevation of calcium in cytoplasm can activate the Ca^2+-calcineurin-NFAT pathway followed by NFAT translocation from the cytoplasm to the nucleus to regulate gene transcription. Therefore, the inventors built a GFP-NFAT translocation-based high-content screening method to evaluate the activity of compounds on CRAC channel. Briefly, a HeLa cell line stably expressing GFP-NFAT was established and used, and the images after chemical stimulation in the presence of TG were acquired using an IN Cell Analyzer 6000 confocal laser imaging system, and then the GFP fluorescent intensity ratio between cytoplasm and nucleus was analyzed to reflect the inhibitory activity of compound on CRAC channel.
Briefly, GFP-NFAT stable cells were cultured in Dulbecco's modified eagle's medium (DMEM) supplemented with 10% FBS in 5% carbon dioxide at 37° C. When it reached 90% confluency, a cell suspension with a concentration of […] was prepared, and an amount of 2000 cells per well (25 μL/well) was seeded in 384 well plate, putting it at the room temperature for 1 h to make sure the cells distribute evenly, then the cells were incubated overnight. First, primary screening of the selected compounds was conducted. A series of compound solutions with a concentration of 200 μM in MEDM medium were prepared in a 96 well plate and then added to a 384 well plate using a Beckman Coulter automatic drug adding system, in 4 duplicates, and incubated for 30 min at 37° C. SKF was selected as the positive control. Then, 1 μM TG and 1 mM Ca^2+ were added to 384-well plate using Beckman Coulter automatic drug adding system and incubated for 20 min. Subsequently, 384 well plate was gently washed with PBS twice, and the cells were fixed with 4% PFA (25 μl per well) for 10˜15 mins at room temperature, then washed with PBS gently, added 0.5% Triton X-100 (25 μL per well), and incubated for 5 mins aFt room temperature, stained with DAPI (1 μg/mL) for 5˜10 mins at room temperature, washed with PBS and added 30 μL PBS per well to image on confocal laser imaging system (objective lens: 10×, FITC and UV). Using Pipeline Plot software (NAFT translocation protocol), the intensity of green fluorescence was analyzed in nucleus and cytosol, calculate the ratio of nucleus:cytosol, normalize TG stimulate NFAT translocation as 1 and no TG adding as 0. Finally, the data was analyzed using GraphPad Prism 5 software.

Chain of CRAC channel (Q96D31 whole entry): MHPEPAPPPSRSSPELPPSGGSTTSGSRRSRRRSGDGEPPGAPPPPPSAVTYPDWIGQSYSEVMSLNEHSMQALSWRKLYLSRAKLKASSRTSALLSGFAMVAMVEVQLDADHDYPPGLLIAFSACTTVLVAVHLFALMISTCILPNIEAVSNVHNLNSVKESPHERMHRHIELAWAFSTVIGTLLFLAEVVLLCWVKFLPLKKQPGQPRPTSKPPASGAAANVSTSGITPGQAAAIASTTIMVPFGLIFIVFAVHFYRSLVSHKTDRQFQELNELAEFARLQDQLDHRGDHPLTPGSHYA

Row | Structure (SMILES) | Inhibitory activity on CRAC channel in primary screening (NFAT nucleus-to-cytosol ratio)
1 | CCN/C(=N\c1cccc(C(F)(F)F)c1)S[C@H]1CC(=O)N(c2ccc(C(=O)O)cc2)C1=O [Compound 03] | good activity
2 | CCN/C(=N/c1ccc(C)c(Cl)c1)SC1CC(=O)N(c2ccc(C(=O)OC)cc2)C1=O (centres unmarked) [Compound 62] | good inhibition

Same assay, conditions: GFP-NFAT translocation assay; read-out: IC50 on CRAC channel

Row | Structure (SMILES) | IC50
3 | CCN/C(=N\c1cccc(C(F)(F)F)c1)S[C@H]1CC(=O)N(c2ccc(C(=O)O)cc2)C1=O [Compound 03] | ~100 µM

Same assay, conditions: Table 1, hits from virtual screening; unit inferred; read-out: IC50 Value

Row | Structure (SMILES) | IC50
4 | CCN/C(=N\c1cccc(C(F)(F)F)c1)S[C@H]1CC(=O)N(c2ccc(C(=O)O)cc2)C1=O [Compound 03] | 144 µM
5 | Cc1cc(C)c(S(=O)(=O)Nc2ccc(O)c(C(=O)O)c2)c(C)c1 [Compound 06] | > 200 µM
6 | Cc1ccc(Oc2ccc3c(c2)C(=O)N(CC(=O)O)C3=O)cc1 [Compound 07] | > 200 µM
7 | O=C(CSCc1c(Cl)cccc1Cl)Nc1ccc(C(=O)O)cc1 [Compound 09] | > 200 µM
8 | Cc1cc(=O)n2c3c(cc(S(=O)(=O)NCc4ccc(C(=O)O)cc4)cc13)CC2 [Compound 12] | > 200 µM
9 | O=C(CCCc1nc(-c2ccccc2)no1)Nc1ccc(C(=O)O)cc1 [Compound 13] | > 200 µM
10 | O=C(O)c1ccc(-c2ccc(CNC3CCCCC3)o2)cc1 [Compound 14] | > 200 µM
11 | Cc1cccc(C)c1OCC(=O)NCc1ccc(C(=O)O)cc1 [Compound 17] | > 200 µM
12 | O=C(O)c1ccc(NC(=O)C2CC(=O)N(c3ccc(Cl)cc3)C2)cc1 (centres unmarked) [Compound 18] | > 200 µM
13 | CCOc1cc(Cl)c(S(=O)(=O)N2CCC(C(=O)O)CC2)cc1Cl [Compound 19] | > 200 µM
14 | CC(SC1N=C(c2ccccc2)C(c2ccccc2)=N1)C(=O)O (centres unmarked) [Compound 22] | > 200 µM
15 | CCc1ccc(C=C(C(=O)O)C(=O)O)s1 [Compound 23] | > 200 µM
16 | O=C(O)c1ccc(N2C(=O)c3cccc4cc(Br)cc(c34)C2=O)cc1 [Compound 24] | > 200 µM
17 | C=CC[C@H]1N(c2ccccc2Cl)C[C@H]2[C@H](C(=O)O)[C@@H]3C=C[C@@]21O3 [Compound 25] | > 200 µM
18 | CC(=C\C(=O)O)/C(=C/c1ccc(C)o1)C(=O)O [Compound 27] | > 200 µM
19 | Nc1c(S(=O)(=O)O)ccc2c1C(=O)c1ccccc1C2=O [Compound 28] | > 200 µM
20 | Cc1nn([C@H](CC(=O)O)C(=O)O)c(C)c1I [Compound 29] | > 200 µM
21 | CCN/C(=N\c1ccc(Cl)c(Cl)c1)S[C@H]1CC(=O)N(c2ccc(C(=O)O)cc2)C1=O [Compound 30] | > 200 µM
22 | Cc1cc2nc(S(=O)(=O)O)n(C)c2cc1C [Compound 31] | > 200 µM

Row | Structure (SMILES) | IC50
23 | Cc1c(C(=O)O)nnn1-c1ccc(Br)cc1 [Compound 32] | > 200 µM
24 | O=C(O)c1ccc(C(=O)Nc2ccc(Br)cc2)c(C(=O)O)c1 [Compound 33] | > 200 µM
25 | COc1ccc(-c2occ(C(=O)O)c2C(=O)O)cc1 [Compound 34] | > 200 µM
26 | O=C(O)c1ccc2c(c1)[C@@H](Cl)Cc1ccccc1S2 [Compound 35] | > 200 µM
27 | O=C1CCC(=O)N1c1ccc(S(=O)(=O)O)cc1 [Compound 36] | > 200 µM
28 | O=C(O)CN1C(=O)[C@@H]2[C@@H](C1=O)[C@H]1C=C[C@@H]2C1 [Compound 37] | > 200 µM
29 | Cc1nn(-c2ccc([N+](=O)[O-])cc2)c(Cl)c1S(=O)(=O)O [Compound 38] | > 200 µM
30 | O=C(O)[C@H]1CC(=O)N(c2ccc(I)cc2)C1 [Compound 39] | > 200 µM
31 | C#CCOc1ccc2ccccc2c1/C=C1\SC(Nc2cccc(C(=O)O)c2)=NC1=O [Compound 40] | > 200 µM
32 | Cc1ccc(N2C(=O)c3ccc(C(=O)O)cc3C2=O)cc1Cl [Compound 42] | > 200 µM
33 | Cc1cc(C)n(-c2ccc(S(=O)(=O)O)cc2)n1 [Compound 43] | > 200 µM
34 | O=C(O)CCC(=O)Nc1ccc(OCCc2ccccc2)cc1 [Compound 44] | > 200 µM
35 | Cc1ccc(S(=O)(=O)Nc2ccc(O)c(C(=O)O)c2)c(C)c1 [Compound 46] | > 200 µM
36 | O=C(O)c1ccc(NC(=O)[C@H]2CC(=O)N(c3ccc(Cl)cc3)C2)cc1 [Compound 47] | > 200 µM
37 | Nc1nc(C(=O)O)nn1C12CC3CC(CC(C3)C1)C2 [Compound 48] | > 200 µM
38 | CN(C)c1ccc(CNCc2ccc(C(=O)O)cc2)cc1 [Compound 49] | > 200 µM
39 | Cc1ccc(Oc2ccc(N3C[C@H](C(=O)O)CC3=O)cc2)cc1C [Compound 50] | > 200 µM
40 | O=c1[nH]nnc2c1C1=C(CCCC1)C2 [Compound 51] | > 200 µM

Same assay, conditions: Table 1; compound marked as agonist; unit inferred; read-out: IC50 Value (agonist)

Row | Structure (SMILES) | IC50
41 | CN1C(=O)C(Cc2ccc(O)c(Cl)c2)S/C1=N\c1cccc(C(=O)O)c1 (centres unmarked) [Compound 21] | 60.3 µM

Same assay, conditions: Table 2; unit inferred; read-out: IC50 of the compounds (inhibitory activity on CRAC channel)

Row | Structure (SMILES) | IC50
42 | O=C(O)c1ccc(N2C(=O)CC(S/C(=N\c3ccccc3)Nc3ccccc3)C2=O)cc1 (centres unmarked) [Compound 52] | > 200 µM
43 | CN/C(=N/c1ccc(F)cc1)SC1CC(=O)N(c2ccc(C(=O)O)cc2)C1=O (centres unmarked) [Compound 54] | > 200 µM
44 | CCN/C(=N/c1ccc(C(F)(F)F)cc1)SC1CC(=O)N(c2ccc(C(=O)O)cc2)C1=O (centres unmarked) [Compound 55] | > 200 µM
45 | CN/C(=N/c1cc(Cl)ccc1Cl)SC1CC(=O)N(c2ccc(C(=O)O)cc2)C1=O (centres unmarked) [Compound 56] | > 200 µM
46 | CCOC(=O)c1ccc(N2C(=O)CC(SCc3nnnn3-c3ccccc3)C2=O)cc1 (centres unmarked) [Compound 57] | > 200 µM
47 | COC(=O)c1ccc(N2C(=O)CC(S/C(=N\c3ccccc3)NCc3ccc4c(c3)OCO4)C2=O)cc1 (centres unmarked) [Compound 58] | > 200 µM
48 | CN/C(=N/c1ccc(I)cc1)SC1CC(=O)N(c2ccc(C(=O)O)cc2)C1=O (centres unmarked) [Compound 59] | > 200 µM
49 | CN/C(=N/c1ccc(C)c(Cl)c1)SC1CC(=O)N(c2ccc(C(=O)O)cc2)C1=O (centres unmarked) [Compound 60] | > 200 µM
50 | CCN/C(=N/c1ccccc1)SC1CC(=O)N(c2ccc(C(=O)O)cc2)C1=O (centres unmarked) [Compound 61] | > 200 µM
51 | CCN/C(=N/c1ccc(C)c(Cl)c1)SC1CC(=O)N(c2ccc(C(=O)OC)cc2)C1=O (centres unmarked) [Compound 62] | 11.3 µM
52 | CN/C(=N/c1ccccc1OC)SC1CC(=O)N(c2ccc(C(=O)OC)cc2)C1=O (centres unmarked) [Compound 63] | 74.4 µM
53 | CN/C(=N/c1ccccc1)SC1CC(=O)N(c2ccc(C(=O)OC)cc2)C1=O (centres unmarked) [Compound 64] | 24.9 µM
54 | COC(=O)c1ccc(N2C(=O)CC(S/C(=N\c3cccc(C(F)(F)F)c3)NCCc3ccc(OC)c(OC)c3)C2=O)cc1 (centres unmarked) [Compound 67] | > 200 µM
55 | COC(=O)c1ccc(N2C(=O)CC(S/C(=N\c3ccc(Cl)cc3)NCc3ccccc3)C2=O)cc1 (centres unmarked) [Compound 68] | > 200 µM
56 | CN/C(=N/c1cc(Cl)cc(Cl)c1)SC1CC(=O)N(c2ccc(C(=O)O)cc2)C1=O (centres unmarked) [Compound 69] | 108 µM
57 | CN/C(=N/c1cccc(F)c1)SC1CC(=O)N(c2ccc(C(=O)O)cc2)C1=O (centres unmarked) [Compound 70] | > 200 µM
58 | CN/C(=N/c1cccc(OC)c1)SC1CC(=O)N(c2ccc(C(=O)O)cc2)C1=O (centres unmarked) [Compound 71] | > 200 µM
59 | CCN/C(=N/c1cccc(OC)c1)SC1CC(=O)N(c2ccc(C(=O)O)cc2)C1=O (centres unmarked) [Compound 72] | > 200 µM
60 | CCN/C(=N/c1cccc(F)c1)SC1CC(=O)N(c2ccc(C(=O)O)cc2)C1=O (centres unmarked) [Compound 73] | > 200 µM
61 | COc1ccc(CN/C(=N/c2ccc(Cl)cc2)SC2CC(=O)N(c3ccc(C(=O)O)cc3)C2=O)cc1 (centres unmarked) [Compound 74] | > 200 µM
62 | CN/C(=N/c1ccccc1)SC1CC(=O)N(c2ccc(C(=O)OC)cc2)C1=O (centres unmarked) [Compound 75] | > 200 µM
63 | CCN/C(=N\c1ccccc1)SC1CC(=O)N(c2ccc(C(=O)OC)cc2)C1=O (centres unmarked) [Compound 76] | > 200 µM
64 | CCCN/C(=N\c1ccccc1)SC1CC(=O)N(c2ccc(C(=O)OC)cc2)C1=O (centres unmarked) [Compound 77] | > 200 µM
65 | CCCCN/C(=N\c1ccccc1)SC1CC(=O)N(c2ccc(C(=O)OC)cc2)C1=O (centres unmarked) [Compound 78] | > 200 µM
